We go through twelve molecules from patent US9187460B2, “Estrogen receptor modulators and uses thereof” (SERAGON PHARMACEUTICALS, INC., priority 2011, dated 2015).

One assay concerns MCF-7 cells. The assay is described as follows: Breast Cancer Cell Viability Assay (MCF7 Viability Assay). The format is cell-based. The conditions noted are these: for pIC50: Homo sapiens, MCF7, 120 h, read-out: MCF7 Viability Assay IC50; for MCF7 Viability Assay Max Response: MCF-7 cells, 5 days' compound exposure, CellTiter-Glo. (In general: ATP-based viability assays read luminescence as a measure of living cells.)

The next assay has as its target T1, ER-α (Homo sapiens, UniProt P03372).
T1 construct: endogenous in cells; host or cells: MCF-7
Put plainly: Breast Cancer Cell ER-α in Cell Western Assay (SP1). The format is cell-based. The settings on record: MCF7, read-out: ER In-Cell Western Assay (SP1); Max Response. How it is done: Breast Cancer Cell ER-α in Cell Western Assay (SP1)
MCF-7 cells were adjusted to a concentration of 200,000 cells per mL in RPMI containing 10% charcoal-stripped FBS and 20 mM HEPES. 16 microliters of the cell suspension (3200 cells) was added to each well of a poly-D-lysine 384 well plate, and the cells were incubated overnight to allow the cells to adhere. The following day an eleven point, serial semilog dilution of each compound was added to the cells in 16 μL at a final concentration ranging from 0.3-0.000003 μM. At 4 or 24 hr post compound addition, the cells were fixed (10% formalin in PBS) for 20 minutes. Cells were permeablized in PBS 0.1% Triton and blocked with LICOR blocking buffer (50 μl/well, 90′). The wells were then incubated overnight at 4° C. with SP1 rabbit monoclonal Ab (Thermo Scientific) diluted 1:1000 in LICOR blocking buffer/0.1% Tween-20. Wells which were treated with blocking buffer with Tween but no antibody were used as a background control. Wells were washed with 0.1% Tween-20/PBS and then incubated in goat anti-rabbit IRDye™ 800CW (LICOR Inc.; 1:1000) and DRAQ5 DNA dye (1:2000 for 2 mM stock) diluted in LICOR blocking buffer containing 0.1% Tween-20 and 0.01% SDS for 60 minutes. Cells were washed (50 μl/well, 5′ each) in 0.1% Tween-20/PBS. Plates were scanned on a LICOR Odyssey infrared imaging system. Integrated intensities in the 800 nm channel and 700 nm channel were measured to determine levels of ER and DNA respectively. Percent ER levels were determined as follows: (Integrated intensity 800 nm sample/integrated intensity 700 nm sample)/(Integrated intensity 800 nm untreated cells/integrated intensity 700 nm untreated cells)×100=% ER levels.

pIC50: −log10 of the molar value.

T1 sequence (P03372 whole entry): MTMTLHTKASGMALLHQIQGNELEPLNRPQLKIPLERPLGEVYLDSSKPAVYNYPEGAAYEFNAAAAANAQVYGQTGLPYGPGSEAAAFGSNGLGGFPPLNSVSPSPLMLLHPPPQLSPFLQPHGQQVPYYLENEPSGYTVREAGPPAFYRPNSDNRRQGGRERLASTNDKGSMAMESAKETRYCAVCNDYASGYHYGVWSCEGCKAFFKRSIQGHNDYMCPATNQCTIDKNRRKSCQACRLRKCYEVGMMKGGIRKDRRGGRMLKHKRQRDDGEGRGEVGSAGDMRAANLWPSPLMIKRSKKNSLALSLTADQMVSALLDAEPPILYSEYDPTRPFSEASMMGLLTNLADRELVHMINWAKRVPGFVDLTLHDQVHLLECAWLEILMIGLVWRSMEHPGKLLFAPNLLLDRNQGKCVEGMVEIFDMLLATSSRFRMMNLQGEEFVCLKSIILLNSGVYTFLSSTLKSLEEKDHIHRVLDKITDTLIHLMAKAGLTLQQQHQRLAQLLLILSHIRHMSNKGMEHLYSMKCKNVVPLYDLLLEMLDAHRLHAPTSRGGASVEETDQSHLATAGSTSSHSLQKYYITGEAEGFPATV

As for `CC1=C(c2cccc(O)c2)C(c2ccc(OCCN3CCO[C@@H](C)C3)cc2)Oc2ccc(O)cc21` (stereo partly drawn) [Example 20, 3-(3-Hydroxyphenyl)-4-methyl-2-(4-(2-((S)-2-methylmorpholino)ethoxy)phenyl)-2H-chromen-6-ol], in the assay with MCF-7 cells, the pIC50 is more than 9.00 and the “MCF7 Viability Assay Max Response” value was “+ (+ = a single % value <50%)”. Further, the Emax on ER-α was less than 60%.
As to `CC1=C(c2cccc(O)c2)C(c2ccc(OCCN3CCOCC3)cc2)Oc2ccc(O)cc21` (stereo not drawn) [Example 21, 3-(3-Hydroxyphenyl)-4-methyl-2-(4-(2-morpholinoethoxy)phenyl)-2H-chromen-6-ol], in the assay with MCF-7 cells, the pIC50 was more than 9.00 and the “MCF7 Viability Assay Max Response” value is given as “+ (+ = a single % value <50%)”. For the same molecule, the Emax at ER-α fell in the range of 60 to 85%.
The corresponding values for `CC1=C(c2cccc(O)c2)C(c2ccc(OCCN3CCO[C@H](C)C3)cc2)Oc2ccc(O)cc21` (stereo partly drawn) [Example 22, 3-(3-Hydroxyphenyl)-4-methyl-2-(4-(2-((R)-2-methylmorpholino)ethoxy)phenyl)-2H-chromen-6-ol] are less than 9.00, “+ (+ = a single % value <50%)” and less than 60%.
The corresponding values for `CC1=C(c2cccc(O)c2)C(c2ccc(OCCN3CCOC[C@@H]3C)cc2)Oc2ccc(O)cc21` (stereo partly drawn) [Example 23, 3-(3-Hydroxyphenyl)-4-methyl-2-(4-(2-((S)-3-methylmorpholino)ethoxy)phenyl)-2H-chromen-6-ol] are less than 9.00, “+ (+ = a single % value <50%)” and less than 60%.
In the case of `CC1=C(c2cccc(O)c2)C(c2ccc(OCCN3CCOC[C@H]3C)cc2)Oc2ccc(O)cc21` (stereo partly drawn) [Example 24, 3-(3-Hydroxyphenyl)-4-methyl-2-(4-(2-((R)-3-methylmorpholino)ethoxy)phenyl)-2H-chromen-6-ol], in the assay on MCF-7 cells, the pIC50 is more than 9.00 and the “MCF7 Viability Assay Max Response” value is “+ (+ = a single % value <50%)”. Also, the Emax at ER-α is less than 60%.
`CO[C@@H]1CCN([C@@H](C)COc2ccc(C3Oc4ccc(O)cc4C(C)=C3c3cccc(O)c3)cc2)C1` (stereo partly drawn) [Example 25, 3-(3-Hydroxyphenyl)-2-(4-((S)-2-((R)-3-methoxypyrrolidin-1-yl)propoxy)phenyl)-4-methyl-2H-chromen-6-ol]: in the assay with MCF-7 cells, the pIC50 was more than 9.00 and the “MCF7 Viability Assay Max Response” value is “++ (++ = a single % value ≧50%)”. Further, the Emax at ER-α was in the range of 60 to 85%.
`CC1=C(c2cccc(O)c2)C(c2ccc(OC[C@H](C)N3CC[C@@H](O)C3)cc2)Oc2ccc(O)cc21` (stereo partly drawn) [Example 26, (3R)-1-((2S)-1-(4-(6-Hydroxy-3-(3-hydroxyphenyl)-4-methyl-2H-chromen-2-yl)phenoxy)propan-2-yl)pyrrolidin-3-ol]: in the assay with MCF-7 cells, the pIC50 was more than 9.00 and the “MCF7 Viability Assay Max Response” value is on record as “+ (+ = a single % value <50%)”. On ER-α, the Emax was less than 60%.
Take `CC1=C(c2cccc(O)c2)C(c2ccc(OC[C@H](C)N3CCOC[C@H]3C)cc2)Oc2ccc(O)cc21` (stereo partly drawn) [Example 27, 3-(3-Hydroxyphenyl)-4-methyl-2-(4-((S)-2-((R)-3-methylmorpholino)propoxy)phenyl)-2H-chromen-6-ol]: in the assay with MCF-7 cells, the pIC50 was more than 9.00 and the “MCF7 Viability Assay Max Response” value is given as “++ (++ = a single % value ≧50%)”. Also, the Emax on ER-α is less than 60%.
Turning to `CC1=C(c2cccc(O)c2)C(c2ccc(OC[C@H](C)N3CCN(C)C[C@H]3C)cc2)Oc2ccc(O)cc21` (stereo partly drawn) [Example 28, 2-(4-((S)-2-((R)-2,4-Dimethylpiperazin-1-yl)propoxy)phenyl)-3-(3-hydroxyphenyl)-4-methyl-2H-chromen-6-ol], in the assay on MCF-7 cells, the pIC50 is more than 9.00 and the “MCF7 Viability Assay Max Response” value is listed as “+ (+ = a single % value <50%)”. Also, at ER-α, the Emax was less than 60%.
In the case of `CC1=C(c2cccc(O)c2)C(c2ccc(OC[C@H](C)N3CCOCC3)cc2)Oc2ccc(O)cc21` (stereo partly drawn) [Example 29, 3-(3-Hydroxyphenyl)-4-methyl-2-(4-((S)-2-morpholinopropoxy)phenyl)-2H-chromen-6-ol], in the assay on MCF-7 cells, the pIC50 was more than 9.00 and the “MCF7 Viability Assay Max Response” value was “+ (+ = a single % value <50%)”. The Emax on ER-α is 60 to 85%.
`COc1ccc2c(c1)C(C)=C(c1ccc(O)cc1)C(c1ccc(OC[C@H](C)N3CC[C@@H](C)C3)cc1)O2` (stereo partly drawn) [Example 30, 4-(6-Methoxy-4-methyl-2-(4-((S)-2-((R)-3-methylpyrrolidin-1-yl)propoxy)phenyl)-2H-chromen-3-yl)phenol]: in the assay on MCF-7 cells, the pIC50 is less than 9.00 and the “MCF7 Viability Assay Max Response” value is given as “++ (++ = a single % value ≧50%)”. Besides, the Emax on ER-α is 60 to 85%.
Regarding `COc1cccc(C2=C(C)c3cc(O)ccc3OC2c2ccc(OC[C@H](C)N3CC[C@@H](C)C3)cc2)c1` (stereo partly drawn) [Example 31, 3-(3-Methoxyphenyl)-4-methyl-2-(4-((S)-2-((R)-3-methylpyrrolidin-1-yl)propoxy)phenyl)-2H-chromen-6-ol], in the assay on MCF-7 cells, the pIC50 is less than 9.00 and the “MCF7 Viability Assay Max Response” value is reported as “++ (++ = a single % value ≧50%)”. At ER-α, the Emax was 60 to 85%.

By pIC50 is commonly meant the IC50 on a negative log10 scale, so that one unit is a factor of ten.
